Test results from publication PMC6556873, “Rapid Covalent-Probe Discovery by Electrophile-Fragment Screening” (Journal of the American Chemical Society, 2019).
Like-named read-outs stand apart in the source and are kept apart here.

Experiments:
BSA = biological target: T1, BSA (Bos taurus, UniProt P02769); design: Intact protein LC/MS covalent labelling, fragments in pools of five, 200 uM each, 4 °C; conditions: 24 h, 4 °C, pool of five; 200 µM; covalent
T1 construct: gene ALB
Experimental: (§1) Incubations were performed at 200 μM for each compound and 2 μM of protein (10 μM for BSA) for 24 h at 4 °C with moderate shaking. Incubation buffers varied among proteins (PBS pH 7.4 for QSOX1 and BSA; 10 mM HEPES pH 7.5, 0.3 M NaCl, 0.5 mM TCEP for PCAF, UPS8, and NUDT7; […]; 10 mM Na2HPO4 pH 7.5 100 mM NaCl 5 mM β-mercaptoethanol for NV3CP; 20 mM Na phosphate pH 7.5 for NNMT; […]. The reaction was stopped by quenching with formic acid, 0.4% final concentration. Each protein was incubated with the electrophilic library in pools of five compounds per well. The pool’s composition maximized the difference in mass between fragments in the same well. Incubations were performed with each fragment at 200 μM, for 24 h at 4 °C, to allow the screening of proteins that are not stable for long time periods at higher temperatures. Following incubation, we used intact protein [compound left out] chromatography/mass spectrometry (LC/MS) to identify the fragments and quantify their labeling (Figure 3A). […] There was good agreement between the percent of labeling of NUDT7 by 100 random individual compounds and that obtained in pools of five (R^2=0.78; Figure S6 and Data set 2 in the Supporting Information).

NUDT7 = biological target: T2, NUDT7 (Homo sapiens, UniProt P0C024); design: Intact protein LC/MS covalent labelling, fragments in pools of five, 200 uM each, 4 °C; conditions: 24 h, 4 °C, pool of five; 200 µM; covalent
T2 construct: residues 14-235, E. coli, pNIC28-Bsa4, N-terminal His6 tag removed by TEV, construct 26672 Da
T2 sequence (P0C024 14-235): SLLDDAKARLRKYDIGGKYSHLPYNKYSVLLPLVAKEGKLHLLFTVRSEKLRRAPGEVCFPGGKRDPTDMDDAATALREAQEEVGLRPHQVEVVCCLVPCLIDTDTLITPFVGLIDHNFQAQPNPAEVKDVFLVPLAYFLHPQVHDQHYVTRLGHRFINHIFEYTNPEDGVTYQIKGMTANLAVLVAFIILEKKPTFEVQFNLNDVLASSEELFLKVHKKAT
Experimental: as §1

OTUB2 (OTUB2A) = biological target: T3, OTUB2 (OTUB2A) (Homo sapiens, UniProt Q96DC9); design: Intact protein LC/MS covalent labelling, fragments in pools of five, 200 uM each, 4 °C; conditions: 24 h, 4 °C, pool of five; 200 µM; covalent
T3 construct: full length residues 1-234, E. coli BL21(DE3)-R3, His tag removed by TEV, construct 27312 Da
T3 sequence (Q96DC9 1-234): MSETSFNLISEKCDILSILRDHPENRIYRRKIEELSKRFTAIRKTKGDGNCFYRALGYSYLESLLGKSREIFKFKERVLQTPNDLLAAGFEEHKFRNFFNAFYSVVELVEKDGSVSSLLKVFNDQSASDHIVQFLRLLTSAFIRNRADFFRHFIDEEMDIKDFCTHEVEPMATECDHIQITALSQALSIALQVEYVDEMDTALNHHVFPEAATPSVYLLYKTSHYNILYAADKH
Experimental: as §1

PCAF = biological target: T4, PCAF (Homo sapiens, UniProt Q92831); design: Intact protein LC/MS covalent labelling, fragments in pools of five, 200 uM each, 4 °C; conditions: 24 h, 4 °C, pool of five; 200 µM; covalent
T4 construct: gene KAT2B
T4 sequence (Q92831 whole entry, the tested form may be a part): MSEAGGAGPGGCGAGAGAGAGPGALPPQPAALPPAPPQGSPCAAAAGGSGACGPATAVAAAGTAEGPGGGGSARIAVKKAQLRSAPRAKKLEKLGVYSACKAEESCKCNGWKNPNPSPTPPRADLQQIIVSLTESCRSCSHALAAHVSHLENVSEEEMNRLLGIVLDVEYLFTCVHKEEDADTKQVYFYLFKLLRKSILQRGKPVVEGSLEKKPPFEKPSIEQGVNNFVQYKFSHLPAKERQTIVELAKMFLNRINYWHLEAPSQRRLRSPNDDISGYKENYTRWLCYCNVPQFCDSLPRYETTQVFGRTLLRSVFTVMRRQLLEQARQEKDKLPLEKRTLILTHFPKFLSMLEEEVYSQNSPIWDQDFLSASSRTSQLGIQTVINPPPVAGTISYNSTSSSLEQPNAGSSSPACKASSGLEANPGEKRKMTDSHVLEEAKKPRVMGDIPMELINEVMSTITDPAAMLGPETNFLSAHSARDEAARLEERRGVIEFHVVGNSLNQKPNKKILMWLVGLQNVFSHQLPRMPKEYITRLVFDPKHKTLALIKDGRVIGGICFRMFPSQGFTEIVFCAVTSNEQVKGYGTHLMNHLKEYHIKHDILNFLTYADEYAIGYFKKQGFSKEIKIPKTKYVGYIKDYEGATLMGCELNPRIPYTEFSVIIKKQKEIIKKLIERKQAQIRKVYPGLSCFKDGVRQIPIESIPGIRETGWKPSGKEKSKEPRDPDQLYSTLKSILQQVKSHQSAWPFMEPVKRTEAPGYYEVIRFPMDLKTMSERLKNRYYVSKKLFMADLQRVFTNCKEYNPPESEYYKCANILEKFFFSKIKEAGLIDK
Experimental: as §1

in vitro [1] = experiment: in vitro; design: species or system CCD841, HEK293; conditions: human, hb2 cells, read-out: HB-2 Cells Viability (%)
in vitro [2] = experiment: in vitro; design: species or system HB2, HEK293; conditions: human, ccd841 cells
in vitro [3] = experiment: in vitro; design: species or system HB2, CCD841; conditions: human, hek293 cells

T1 sequence (P02769 whole entry, the tested form may be a part): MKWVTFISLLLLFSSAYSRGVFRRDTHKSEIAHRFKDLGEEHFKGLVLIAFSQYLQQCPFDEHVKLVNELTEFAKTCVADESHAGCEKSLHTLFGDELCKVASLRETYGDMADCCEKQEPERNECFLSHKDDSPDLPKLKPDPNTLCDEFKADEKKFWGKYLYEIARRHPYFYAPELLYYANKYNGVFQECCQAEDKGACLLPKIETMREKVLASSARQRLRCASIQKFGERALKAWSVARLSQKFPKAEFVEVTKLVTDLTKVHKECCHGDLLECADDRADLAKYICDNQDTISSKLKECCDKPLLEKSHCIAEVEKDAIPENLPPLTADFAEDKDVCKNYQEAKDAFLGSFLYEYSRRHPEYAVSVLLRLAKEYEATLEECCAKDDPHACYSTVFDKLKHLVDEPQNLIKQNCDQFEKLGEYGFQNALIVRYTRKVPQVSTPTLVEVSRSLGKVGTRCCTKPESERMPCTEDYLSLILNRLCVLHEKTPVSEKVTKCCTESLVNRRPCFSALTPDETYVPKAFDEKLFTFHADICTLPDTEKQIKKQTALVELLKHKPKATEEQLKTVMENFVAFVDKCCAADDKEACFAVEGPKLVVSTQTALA

Row | Structure (SMILES) | BSA (BSA) | NUDT7 (NUDT7) | OTUB2 (OTUB2 (OTUB2A)) | PCAF (PCAF) | viability at 48 h, 10 µM (in vitro [1]) | viability at 48 h, 10 µM (in vitro [2]) | viability at 48 h, 10 µM (in vitro [3])
1 | O=C(CCl)Nc1cc(F)ccc1C(=O)O [PCM-0102247] | 0 | 0 | 0 | 0 | 106% | 95.7% | 97%
2 | Cc1ccc(C)c(-n2nc(C)cc2NC(=O)CCl)c1 [PCM-0102249] | 0 | 0 | 0.43 | 0 | 45.3% | 64% | 25.4%
3 | CC1CCC(C#N)(N(C)C(=O)CCl)CC1 (centres unmarked) [PCM-0102251] | 0 | 0.05 | 0 | 0 | 16.5% | 55.4% | 3.9%
4 | COc1ccc(N2CCN(C(=O)CCl)CC2)cc1 [PCM-0102254] | 0 | 0 | 0 | 0 | 33.8% | 84.2% | 42.2%
5 | CC(NC(=O)CCl)c1ccccc1Br (centres unmarked) [PCM-0102256] | 0 | 0.19 | 0.29 | 0 | 39% | 67.3% | 27.3%
6 | O=C(CCl)N1CCN(C(=O)Nc2ccccc2)CC1 [PCM-0102257] | 0 | 0.07 | 0 | 0 | 34.8% | 56.6% | 8.5%
7 | O=C(CCl)Nc1cc(Cl)ccc1-n1cncn1 [PCM-0102258] | 0 | 0.21 | 0 | 0 | 53.8% | 51.7% | 11.7%
8 | CN(CC(=O)NC(C)(C)C)C(=O)CCl [PCM-0102259] | 0 | 0 | 0 | 0 | 97.2% | 85.2% | 69%
9 | CC(C)(C)C1CCc2sc(C(=O)NNC(=O)CCl)cc2C1 (centres unmarked) [PCM-0102260] | 0 | 0 | 0.67 | 0 | 64% | 29.7% | 10.2%
10 | Cc1c(C#N)c(NC(=O)CCl)n(-c2ccccc2)c1C [PCM-0102261] | 0 | 0.3 | 0.09 | 0 | 42.5% | 75.1% | 7.8%
11 | Cc1nc(-c2cccc(NC(=O)CCl)c2)cs1 [PCM-0102262] | 0 | 0 | 0.63 | 0 | 5.4% | 29.7% | 1.7%
12 | CC(C)C(C#N)N1CCN(C(=O)CCl)CC1 (centres unmarked) [PCM-0102263] | 0 | 0.17 | 0.31 | 0 | 64% | 65.2% | 13.9%
13 | Cc1sc2nc(-c3cccc(NC(=O)CCl)c3)[nH]c(=O)c2c1C [PCM-0102264] | 0 | 0 | 0.13 | 0 | 64.6% | 92.8% | 61.2%
14 | Cc1csc(N(C(=O)CCl)c2ccccc2)n1 [PCM-0102265] | 0 | 0.19 | 0.06 | 0 | 12.6% | 36.8% | 48.6%
15 | O=C(CCl)N1c2ccccc2OCC1c1ccccc1 (centres unmarked) [PCM-0102266] | 0 | 0.11 | 0 | 0 | 56.8% | 57.5% | 52.1%
16 | Cc1ccc(C(C)NC(=O)CCl)cc1C (centres unmarked) [PCM-0102270] | 0 | 0 | 0.51 | 0 | 80.2% | 78.1% | 67.9%
17 | CC(=O)c1ccc(N2CCN(C(=O)CCl)CC2)c(F)c1 [PCM-0102273] | 0 | 0.2 | 0 | 0 | 4.9% | 38.5% | 2.2%
18 | CC(NC(=O)CCl)c1cccc2ccccc12 (centres unmarked) [PCM-0102275] | 0 | 0.32 | 0.73 | 0 | 61.6% | 70.5% | 47.3%
19 | O=C(CCl)Nc1ccc(OC(F)(F)F)cc1 [PCM-0102276] | 0 | 0.24 | 0.36 | 0 | 13.3% | 64.9% | 9.2%
20 | O=C(CCl)Nc1ccc(I)cc1 [PCM-0102278] | 0.09 | 0.09 | 0.24 | 0 | 18.7% | 57.1% | 4.9%
21 | CNC(=O)CNC(=O)CCl [PCM-0102279] | 0.09 | 0 | 0.1 | 0 | 108% | 97.3% | 112%
22 | O=C(CCl)NCc1cccs1 [PCM-0102280] | 0 | 0 | 0.22 | 0 | 94.3% | 81.3% | 82%
23 | CC(=O)c1cccc(N2Cc3ccccc3C2=NC(=O)CCl)c1 [PCM-0102283] | 0 | 0 | 0 | 0 | 99.6% | 99.5% | 75%
24 | O=C(CCl)Nc1cc(F)ccc1F [PCM-0102284] | 0 | 0 | 0.28 | 0 | 38.2% | 58.8% | 17.7%
25 | CN(C)S(=O)(=O)c1ccc2c(c1)CCCN2C(=O)CCl [PCM-0102285] | 0 | 0 | 0 | 0 | 21.6% | 53.5% | 2.2%
26 | N#Cc1c(NC(=O)CCl)sc2c1CCCCC2 [PCM-0102286] | 0 | 0.33 | 0 | 0 | 44.3% | 73.9% | 39.9%
27 | Cl.O=C(CCl)N1CCN(Cc2cccc3ccccc23)CC1 [PCM-0102287] | 0 | 0 | 0.29 | 0 | 9.4% | 21.7% | 19.9%
28 | O=C(CCl)Nc1cc(Cl)ccc1Cl [PCM-0102288] | 0 | 0.06 | 0 | 0 | 40.7% | 70.8% | 38.4%
29 | O=C1CN(C(=O)CCl)c2ccc(C(F)(F)F)cc2N1 [PCM-0102289] | 0 | 0 | 0 | 0 | 89.3% | 96.4% | 94.7%
